Reference: patent US5650525A, “1,2-dioxetane derivatives, intermediates for syntheses thereof and methods of producing the intermediates” (priority 1994, dated 1997)
Counter-ions that a name gives are not always drawn.

Experiments:
[1] = Thermal stability: half-life by 1H NMR in methanol-d4 heated at 60° C. (Test Examples 1-2, 2-2); assay type: physicochemical; details: for half-life at 60° C.: 1 mg in methanol-d4 (0.35 ml), 1H NMR at intervals of 2 to 3 hours; for thermal stability compared with AMPPD: methanol-d4, 60° C., versus AMPPD
Protocol: 1 mg of 3-isopropoxy-4,4-diisopropyl-3-(3'-phosphoryloxy)phenyl-1,2-dioxetane disodium salt (Compound [40]) synthesized in Example 26 was dissolved in methanol-d4 (0.35 ml), and the solution was heated at 60° C. in a thermostated bath, so that the solution was subjected to ^1 HNMR measurement at intervals of 2 to 3 hours.
In the above ^1 HNMR measurement, Compound [40] was replaced by the commercially available AMPPD (3-(2'-spiroadamantan)-4-methoxy-4-(3"-phosphoryloxy)phenyl-1,2-dioxetane disodium salt), whereby the half-life of AMPPD at 60° C. was also calculated in the same manner as mentioned above.
1 mg of 3-t-butyl-4-methoxy-3-neopentyloxymethyl-4-(3'-phosphoryloxy)phenyl-1,2-dioxetane disodium salt (Compound [86]) synthesized in Example 66 was dissolved in methanol-d4 (0.35 ml), and the solution was heated at 60° C. in a thermostated bath, so that the solution was subjected to ^1 HNMR measurement at intervals of 2 to 3 hours.

[2] = test system: alkaline phosphatase; assay: Chemiluminescence with alkaline phosphatase, Test Example 1-1 (FIG. 1); assay type: biochemical; details: 0.2 mg/ml, 0.1M diethanolamine/HCl buffer pH 10.0, 37° C.; versus AMPPD
Protocol: 3-isopropoxy-4,4-diisopropyl-3-(3'-phosphoryloxy)phenyl-1,2-dioxetane disodium salt (Compound [40]) synthesized in Example 26 was dissolved in a 0.1M diethanolamine/hydrochloric acid buffer solution (pH 10.0) containing 1 mM magnesium chloride and 0.05% sodium azide, in such an amount that the concentration of the dissolved Compound [40]) was 0.2 mg/ml, and the solution was stirred.
(§1) 300 μl of this solution was placed in a cartridge for assay and incubated for 90 minutes.
(§2) After this incubation, 20 μl of an enzyme solution was added to the above solution, which enzyme solution was prepared by diluting an alkaline phosphatase solution for enzyme immunoassay (made by Boehringer Mannheim Co., Ltd.) (3 mg/0.3 ml) 154 times and then 10^5 times with a 50 mM Tris/cl buffer solution (pH 7.2) containing 0.15M sodium chloride, 1 mM magnesium chloride, 0.1 mM zinc chloride and 0.1% sodium azide.
(§3) The luminescence of the above diluted enzyme solution was measured at 37° C. at regular time intervals.
(§4) For comparison, the luminescence of a commercially available AMPPD (3-(2'-spiroadamantan)-4-methoxy-4-(3"-phosphoryloxy)phenyl-1,2-dioxetane disodium salt was measured under the same conditions as mentioned above, by replacing the Compound [40] with AMPPD in accordance with the above-mentioned procedure.

[3] = test system: alkaline phosphatase; assay: Chemiluminescence with alkaline phosphatase in presence of quaternary ammonium salt (BDMG), Test Example 2-1 (FIG. 2); assay type: biochemical; details: 0.2 mg/ml, 0.1M diethanolamine/HCl buffer pH 10.0 with 0.4 mg/ml BDMG, 37° C.; versus AMPPD
Protocol: 3-t-butyl-4-methoxy-3-neopentyloxymethyl-4-(3'-phosphoryloxy)phenyl-1,2-dioxetane disodium salt (Compound [86]) synthesized in Example 66 was dissolved in a 0.1M diethanolamine/hydrochloric acid buffer solution (pH 10.0 ) containing 0.4 mg/ml of quaternary ammonium salt (BDMG), 1 mM magnesium chloride and 0.05% sodium azide, in such an amount that the concentration of the dissolved Compound [86] was 0.2 mg/ml, and the solution was stirred.
as §1
as §2, with “times” for “times and then 10^5 times”
as §3
as §4, with “salt)” for “salt”, “[86]” for “[40]”

| Structure (SMILES) | half-life at 60° C. [1] [h] | thermal stability compared with AMPPD [1] | chemiluminescence intensity compared with AMPPD [2] | chemiluminescence intensity compared with AMPPD [3] |
| --- | --- | --- | --- | --- |
| CC(C)OC1(c2cccc(OP(=O)(O)O)c2)OOC1(C(C)C)C(C)C (stereo not shown) [Compound [40], 3-isopropoxy-4,4-diisopropyl-3-(3'-phosphoryloxy)phenyl-1,2-dioxetane disodium salt] | 14.3 | thermally more stable | higher intensity |  |
| COC1(c2cccc(OP(=O)(O)O)c2)OOC12C1CC3CC(C1)CC2C3 (stereo not shown) [AMPPD, 3-(2'-spiroadamantan)-4-methoxy-4-(3"-phosphoryloxy)phenyl-1,2-dioxetane disodium salt, reference compound] | 5.5 |  |  |  |
| COC1(c2cccc(OP(=O)(O)O)c2)OOC1(COCC(C)(C)C)C(C)(C)C (stereo not shown) [Compound [86], 3-t-butyl-4-methoxy-3-neopentyloxymethyl-4-(3'-phosphoryloxy)phenyl-1,2-dioxetane disodium salt] | 18.6 | thermally more stable |  | higher intensity |
